Where two headings read alike, the source gives them in different places.
Assays:
[1] = Dog pharmacokinetics after IA injection (plasma, cartilage, bone, synovial fluid); type: in vivo, beagle dogs; settings: for % Recovered / Compound of Formula (I) Concentration, Bone / Compound of Formula (I) Concentration, Cartilage / Total Amount Recovered / concentration at 45 day / concentration at 91 day / concentration at 179 day: dogs, IA suspension
Experimental: In rats and dogs, the pharmacokinetic profile, safety profile, tissue distribution and cartilage regeneration following a single intra-articular (IA) injection of the compound of Formula (I) in the plasma and the knee joint (cartilage and bone) was determined. The compound of Formula (I) (Form 1) was formulated as a suspension composition in 0.5% CMC/0.05% Polysorbate 80 in PBS.
A 350 μL suspension of the compound of Formula (I) (Form 1), formulated as described above, and corresponding to 3 and 30 μg/knee, was injected intra-articularly (IA) into the right and left knees of twelve (12) naïve male beagle dogs. On Day 1, blood was collected at 15 minutes immediately after IA injection and on Days 45, 91 and 179, dogs were sacrificed and blood samples and the knee joints were collected. Plasma and tissue concentrations (bone, cartilage and synovial fluid) were determined using the HPLC-MS/MS bioanalytical method with a dynamic range of […] in plasma or 5.00 to […] in tissue.

[2] = type: in vivo, beagle dogs; settings: dog
Experimental: The local toxicology of Form 1 of the compound of Formula (I) in dogs was studied. The compound of Formula (I) (Form 1) was administered via single or multiple (9 times) intra-articular (IA) injections as a suspension composition in beagle dogs to evaluate local toxicity.
After IA injection, the right stifle joint was histologically evaluated for inflammation, cartilage health, bone density, etc. Toxicology was evaluated immediately after a single or multiple (3 or 9 once-monthly) IA injections.

[3] = system: subjects with moderately to severely symptomatic knee OA; assay: Initial clinical study (first cohort, single IA injection); type: in vivo, human; set-up: Change in cartilage thickness: unit not given here
Experimental: Twenty-one subjects were enrolled in the first cohort of a clinical trial for the treatment of osteoarthritis. All subjects completed a minimum of 12 weeks of follow-up after treatment. This study was a first-in-human, multicenter, placebo-controlled, single-dose, dose-escalation safety study in subjects suffering from moderately to severely symptomatic knee OA. Subjects were treated with a single ultrasound-guided intra-articular injection of a suspension of a non-stoichiometric hydrate of Form I having between 1% and about 20% by weight water or placebo.
A single-use injectable composition containing the compound of Formula (I) suspended in a 0.5% sodium carboxymethylcellulose and 0.05% polysorbate 80 in 10 mM phosphate buffered saline solution, pH 7.4, was prepared. For this study, a dosage of 0.03-0.230 mg of the compound of Formula (I) was administered per 2 mL injection.
Subjects were evaluated using the following primary and secondary assessments:
1. Evaluation of the safety and tolerability of the therapeutic composition administered by intra-articular injection into the target knee joint of moderately to severely symptomatic osteoarthritis (OA) subjects. This included:
a) monitoring for treatment-emergent adverse events (AEs);
b) assessing bone loss by measuring bone biomarkers (cartilage oligomeric matrix protein [COMP], N-terminal propeptides of procollagen type I [PINP], and β-C-terminal telopeptide [β-CTX]) at Weeks 4 and 12 by computed tomography (CT) of both knee joints and at Week 12 after study medication injection compared to baseline; and
c) assessing bone marrow edema by magnetic resonance imaging (MRI) at Week 12 compared to baseline.
2. Assessment of the pharmacokinetic (PK) behavior of the compound of Formula (I) under the conditions of this study at Days 1, 2, 4, and 12.
Estimation of clinical responses to treatment with the therapeutic composition, including:
a) change from baseline in pain visual analog scale (VAS) score assessed at Weeks 1, 2, 4, 8, and 12;
b) change from baseline in the Western Ontario and McMaster Universities Arthritis Index (WOMAC) assessed at Weeks 1, 2, 4, 8, and 12;
c) change from baseline OA pain as assessed by the WOMAC pain subscale at Weeks 1, 2, 4, 8, and 12;
d) change from baseline OA as assessed by the physician global assessment of disease activity at Weeks 1, 2, 4, 8, and 12;
e) change from baseline in total cartilage volume and thickness in the compartments of the target knee joint as documented by Mill at Week 12;
f) changes from baseline in anabolic or catabolic biomarkers indicative of cartilage synthesis or degradation (cartilage oligomeric matrix protein [COMP], N-terminal propeptides of procollagen type I [PINP], and β-C-terminal telopeptide [(3-CTX]) at Weeks 4 and 12;
g) change from baseline in plasma levels of cytokines related to inflammation (interleukin [IL] 1b, IL6, IL8, tumor necrosis factor (TNF), and interferon-alpha [IFNα]) at Weeks 4 and 12; and
h) change from baseline in bone marrow edema as documented by Mill scan of the target knee at baseline and at Week 12.

[4] = dog, up to 30 μg/knee, 179 days
[5] = subject Treatment 1, Week 12 vs baseline
[6] = subject Treatment 2, Week 12 vs baseline
[7] = subject Treatment 3, Week 12 vs baseline
[8] = subject Treatment 4, Week 12 vs baseline

SMILES: CC(C)CC(=O)Nc1cncc(-c2ccc3[nH]nc(-c4nc5c(-c6cccc(F)c6)cncc5[nH]4)c3c2)c1 [compound of Formula (I)]
- % of administered dose recovered ([1]; dog, 3 μg/knee, Day 45): 5.1%
- total amount recovered from cartilage and bone tissues from the tibia ([1]; dog, 3 μg/knee, Day 45): 152 ng
- % of administered dose recovered ([1]; dog, 3 μg/knee, Day 91): 0.55%
- total amount recovered from cartilage and bone tissues from the tibia ([1]; dog, 3 μg/knee, Day 91): 16.6 ng
- % of administered dose recovered ([1]; dog, 3 μg/knee, Day 179): 2.5%
- total amount recovered from cartilage and bone tissues from the tibia ([1]; dog, 3 μg/knee, Day 179): 79 ng
- % of administered dose recovered ([1]; dog, 30 μg/knee, Day 45): 16.8%
- total amount recovered from cartilage and bone tissues from the tibia ([1]; dog, 30 μg/knee, Day 45): 5060 ng
- % of administered dose recovered ([1]; dog, 30 μg/knee, Day 91): 7.25%
- total amount recovered from cartilage and bone tissues from the tibia ([1]; dog, 30 μg/knee, Day 91): 2250 ng
- % of administered dose recovered ([1]; dog, 30 μg/knee, Day 179): 7.03%
- total amount recovered from cartilage and bone tissues from the tibia ([1]; dog, 30 μg/knee, Day 179): 2110 ng
- systemic exposure ([1]; dog, up to 30 μg/knee, 15 minutes post-dose): no measurable systemic exposure
- adverse effects from intra-articular administration [1, 4]: no adverse effects
- mortality [1, 4]: no mortality
- % Recovered ([1]; 3 μg/knee, Day 45): 5.1%
- Compound of Formula (I) Concentration, Bone ([1]; 3 μg/knee, Day 45): [22] nM
- Compound of Formula (I) Concentration, Cartilage ([1]; 3 μg/knee, Day 45): [301] nM
- Total Amount Recovered ([1]; 3 μg/knee, Day 45): 152 ng
- % Recovered ([1]; 3 μg/knee, Day 91): 0.55%
- Compound of Formula (I) Concentration, Bone ([1]; 3 μg/knee, Day 91): BQL
- Compound of Formula (I) Concentration, Cartilage ([1]; 3 μg/knee, Day 91): [73] nM
- Total Amount Recovered ([1]; 3 μg/knee, Day 91): 16.6 ng
- % Recovered ([1]; 3 μg/knee, Day 179): 2.6%
- Compound of Formula (I) Concentration, Bone ([1]; 3 μg/knee, Day 179): 12.8 ng/g and [25] nM
- Compound of Formula (I) Concentration, Cartilage ([1]; 3 μg/knee, Day 179): 63.7 ng/g and [126] nM
- Total Amount Recovered ([1]; 3 μg/knee, Day 179): 79.0 ng
- % Recovered ([1]; 30 μg/knee, Day 45): 16.9%
- Compound of Formula (I) Concentration, Bone ([1]; 30 μg/knee, Day 45): [1160] nM
- Compound of Formula (I) Concentration, Cartilage ([1]; 30 μg/knee, Day 45): [8960] nM
- Total Amount Recovered ([1]; 30 μg/knee, Day 45): 5057 ng
- % Recovered ([1]; 30 μg/knee, Day 91): 7.4%
- Compound of Formula (I) Concentration, Bone ([1]; 30 μg/knee, Day 91): [234] nM
- Compound of Formula (I) Concentration, Cartilage ([1]; 30 μg/knee, Day 91): [4609] nM
- Total Amount Recovered ([1]; 30 μg/knee, Day 91): 2175 ng
- % Recovered ([1]; 30 μg/knee, Day 179): 7.0%
- Compound of Formula (I) Concentration, Bone ([1]; 30 μg/knee, Day 179): [2289] nM
- Compound of Formula (I) Concentration, Cartilage ([1]; 30 μg/knee, Day 179): [228] nM
- Total Amount Recovered ([1]; 30 μg/knee, Day 179): 2109 ng
- concentration at 45 day ([1]; male, beagle, dog, bone, other: intra-articular, 3 μg/knee, Day 45, read-out: Compound of Formula (I) Concentration, Bone): 11.2 ng/g
- concentration at 45 day ([1]; male, beagle, dog, bone, other: intra-articular, 30 μg/knee, Day 45, read-out: Compound of Formula (I) Concentration, Bone): 586 ng/g
- concentration at 91 day ([1]; male, beagle, dog, bone, other: intra-articular, 30 μg/knee, Day 91, read-out: Compound of Formula (I) Concentration, Bone): 118 ng/g
- concentration at 179 day ([1]; male, beagle, dog, bone, other: intra-articular, 30 μg/knee, Day 179, read-out: Compound of Formula (I) Concentration, Bone): 1160 ng/g
- concentration at 45 day ([1]; male, beagle, dog, cartilage, other: intra-articular, 3 μg/knee, Day 45, read-out: Compound of Formula (I) Concentration, Cartilage): 152 ng/g
- concentration at 91 day ([1]; male, beagle, dog, cartilage, other: intra-articular, 3 μg/knee, Day 91, read-out: Compound of Formula (I) Concentration, Cartilage): 37 ng/g
- concentration at 45 day ([1]; male, beagle, dog, cartilage, other: intra-articular, 30 μg/knee, Day 45, read-out: Compound of Formula (I) Concentration, Cartilage): 4520 ng/g
- concentration at 91 day ([1]; male, beagle, dog, cartilage, other: intra-articular, 30 μg/knee, Day 91, read-out: Compound of Formula (I) Concentration, Cartilage): 2330 ng/g
- concentration at 179 day ([1]; male, beagle, dog, cartilage, other: intra-articular, 30 μg/knee, Day 179, read-out: Compound of Formula (I) Concentration, Cartilage): 115 ng/g
- concentration at 15 min ([1]; male, beagle, plasma, other: intra-articular, dog, 15 min post-dose, 3 or 30 μg/knee, BQL): < 2000 ng/mL
- finding at the injection site of high-dose animals (synovium and extra-articular tissues) ([2]; in vivo): local inflammatory response
- no observed adverse effect level (NOAEL) ([2]; in vivo): 1.75 mg/knee
- histopathological effects in the bone and cartilage ([2]; single IA injection 0.07, 1.75 and 35 mg): no adverse histopathological effects
- Change in WOMAC score [3, 5]: −56
- Change in cartilage thickness [3, 5]: 1.2
- Week 12 cartilage thickness (mm) ([3]; subject Treatment 1, baseline 14.01): 15.21 mm
- Week 12 WOMAC score ([3]; subject Treatment 1, baseline 56): 0
- Change in WOMAC score [3, 6]: −30
- Change in cartilage thickness [3, 6]: 1.2
- Week 12 cartilage thickness (mm) ([3]; subject Treatment 2, baseline 12.12): 13.32 mm
- Week 12 WOMAC score ([3]; subject Treatment 2, baseline 51): 21
- Change in WOMAC score [3, 7]: −27
- Change in cartilage thickness [3, 7]: 1.3
- Week 12 cartilage thickness (mm) ([3]; subject Treatment 3, baseline 13.22): 14.52 mm
- Week 12 WOMAC score ([3]; subject Treatment 3, baseline 59): 32
- Change in WOMAC score [3, 8]: −38
- Change in cartilage thickness [3, 8]: 1.44
- Week 12 cartilage thickness (mm) ([3]; subject Treatment 4, baseline 9.89): 11.33 mm
- Week 12 WOMAC score ([3]; subject Treatment 4, baseline 61): 23

From patent US10882860B2, “Treatment of osteoarthritis” (Samumed, LLC, priority 2015, dated 2021)
